Test results reported in patent US10047098B2, “C5-C6-oxacyclic fused iminopyrimidinone compounds as bace inhibitors, compositions, and their use” (Merck Sharp & Dohme Corp., priority 2014, dated 2018).

Columns and labels:
[1] = target: Recombinant human soluble BACE1 catalytic domain (Homo sapiens (Human), UniProt P56817); test: BACE1 HTRF FRET Assay; assay type: biochemical; details: Ki calculated from IC50 using the Cheng-Prusoff equation; QSY7-APPswe-Eu substrate, pH 5.0; read-out: BACE-1 Ki
Chain of Recombinant human soluble BACE1 catalytic domain (P56817 75-416): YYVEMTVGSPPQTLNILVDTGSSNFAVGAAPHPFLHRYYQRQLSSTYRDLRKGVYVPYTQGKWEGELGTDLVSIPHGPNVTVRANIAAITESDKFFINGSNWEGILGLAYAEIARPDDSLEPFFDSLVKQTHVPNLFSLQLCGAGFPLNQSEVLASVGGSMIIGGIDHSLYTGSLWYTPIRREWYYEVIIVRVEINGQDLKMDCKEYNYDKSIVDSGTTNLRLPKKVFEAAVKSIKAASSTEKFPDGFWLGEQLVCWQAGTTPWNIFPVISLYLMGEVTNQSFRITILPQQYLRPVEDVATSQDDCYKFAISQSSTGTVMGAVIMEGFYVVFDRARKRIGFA
From the text: Reagents: Na^+-Acetate pH 5.0; 1% Brij-35; Glycerol; Dimethyl Sulfoxide (DMSO); Recombinant human soluble BACE1 catalytic domain (>95% pure); APP Swedish mutant peptide substrate (QSY7-APP^swe-Eu): QSY7-EISEVNLDAEFC-Europium-amide.
A homogeneous time-resolved FRET assay can be used to determine IC50 values for inhibitors of the soluble human BACE1 catalytic domain. This assay monitors the increase of 620 nm fluorescence that resulted from BACE1 cleavage of an APPswedish APP^swe mutant peptide FRET substrate (QSY7-EISEVNLDAEFC-Europium-amide). This substrate contains an N-terminal QSY7 moiety that serves as a quencher of the C-terminal Europium fluorophore (620 nm Em). In the absence of enzyme activity, 620 nm fluorescence is low in the assay and increased linearly over 3 hours in the presence of uninhibited BACE1 enzyme. Inhibition of BACE1 cleavage of the QSY7-APP^swe-Eu substrate by inhibitors is manifested as a suppression of 620 nm fluorescence.
Varying concentrations of inhibitors at 3× the final desired concentration in a volume of 10 ul are preincubated with purified human BACE1 catalytic domain (3 nM in 10 μl) for 30 minutes at 30° C. in reaction buffer containing 20 mM Na-Acetate pH 5.0, 10% glycerol, 0.1% Brij-35 and 7.5% DSMO. Reactions are initiated by addition of 10 μl of 600 nM QSY7-APP^swe-Eu substrate (200 nM final) to give a final reaction volume of 30 μl in a 384 well Nunc HTRF plate. The reactions are incubated at 30° C. for 1.5 hours. The 620 nm fluorescence is then read on a Rubystar HTRF plate reader (BMG Labtechnologies) using a 50 millisecond delay followed by a 400 millisecond acquisition time window. Inhibitor IC50 values are derived from non-linear regression analysis of concentration response curves. Ki values are then calculated from IC50 values using the Cheng-Prusoff equation using a previously determined […] of 8 μM for the QSY7-APP^swe-Eu substrate at BACE1.

[2] = target: purified human autoBACE-2 (Homo sapiens (Human), UniProt Q9Y5Z0); test: BACE-2 Assay (BACE-HTRF assay); assay type: biochemical; details: Ki calculated from IC50 using the Cheng-Prusoff equation; QSY7-EISEVNLDAEFC-Eu-amide substrate, pH 5.0
Chain of purified human autoBACE-2 (Q9Y5Z0 63-473 limits assumed): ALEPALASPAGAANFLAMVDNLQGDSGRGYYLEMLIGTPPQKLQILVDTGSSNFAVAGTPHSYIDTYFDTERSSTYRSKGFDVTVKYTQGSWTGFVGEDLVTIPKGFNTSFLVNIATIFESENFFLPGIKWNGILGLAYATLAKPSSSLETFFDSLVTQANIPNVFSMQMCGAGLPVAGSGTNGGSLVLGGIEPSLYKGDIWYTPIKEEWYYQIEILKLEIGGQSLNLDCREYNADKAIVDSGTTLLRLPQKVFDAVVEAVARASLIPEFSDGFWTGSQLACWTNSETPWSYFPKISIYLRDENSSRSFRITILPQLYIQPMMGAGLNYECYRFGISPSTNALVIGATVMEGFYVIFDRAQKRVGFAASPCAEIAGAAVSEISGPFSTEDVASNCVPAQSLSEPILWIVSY
Protocol: Inhibitor IC50s at purified human autoBACE-2 are determined in a time-resolved endpoint proteolysis assay that measures hydrolysis of the QSY7-[…]-Eu-amide FRET peptide substrate (BACE-HTRF assay). […] DMSO is present at 5% final concentration in the assay. Following laser excitation of sample wells at 320 nm, the fluorescence signal at 620 nm is collected for 400 ms following a 50 μs delay on a RUBYstar HTRF plate reader (BMG Labtechnologies). Raw RFU data is normalized to maximum (1.0 nM BACE/DMSO) and minimum (no enzyme/DMSO) RFU values. […] The Ki values are calculated from the IC50 using the Cheng-Prusoff equation.

| Ki [1] | Ki [2] | Compound |
| --- | --- | --- |
| 9 nM | 51 nM | CN1C(=N)N[C@@]2(c3cc(Oc4cc(-n5cccn5)ccn4)ccc3F)CO[C@@H](C3CC3)C[C@H]2C1=O [Example 56, (4aR,6R,8aS)-8a-(5-((4-(1H-pyrazol-1-yl)pyridin-2-yl)oxy)-2-fluorophenyl)-6-cyclopropyl-2-imino-3-methylhexahydro-1H-pyrano[3,4-d]pyrimidin-4(4aH)-one] |
| 13 nM | 35 nM | CN1C(=N)N[C@@]2(c3cc(Oc4ncncc4F)ccc3F)CO[C@@H](C3CC3)CC2C1=O (stereo partly drawn) [Example 58, (6R,8aS)-6-cyclopropyl-8a-(2-fluoro-5-((5-fluoropyrimidin-4-yl)oxy)phenyl)-2-imino-3-methylhexahydro-IH-pyrano[3,4-d]pyrimidin-4(4aH)-one] |
| 3 nM | 20 nM | COC[C@H]1C[C@H]2C(=O)N(C)C(=N)N[C@@]2(c2cc(Oc3cc(F)cnc3F)c(F)cc2F)CO1 [Example 59, (4aR,6R,8aS)-8a-(5-((2,5-difluoropyridin-3-yl)oxy)-2,4-difluorophenyl)-2-imino-6-(methoxymethyl)-3-methylhexahydro-1H-pyrano[3,4-d]pyrimidin-4(4aH)-one] |
| 121 nM | 125 nM | Cc1cnc(Oc2ccc(F)c([C@]34CO[C@@H](C5CC5)C[C@H]3C(=O)N(C)C(=N)N4)c2)c(F)c1 [Example 60, (4aR,6R,8aS)-6-cyclopropyl-8a-(2-fluoro-5-((3-fluoro-5-methylpyridin-2-yl)oxy)phenyl)-2-imino-3-methylhexahydro-1H-pyrano[3,4-d]pyrimidin-4(4aH)-one] |
| 358 nM | 82.7 nM | C[C@H]1C[C@H]2C(=O)N(C)C(=N)N[C@@]2(c2cc(O)ccc2F)CO1 [Example 64, (4aR,6S,8aS)-8a-(2-fluoro-5-hydroxyphenyl)-2-imino-3,6-dimethylhexahydro-1H-pyrano[3,4-d]pyrimidin-4(4aH)-one] |
| 6.6 nM | 15.8 nM | COc1cncc(Oc2ccc(F)c([C@]34CO[C@@H](C)C[C@H]3C(=O)N(C)C(=N)N4)c2)n1 [Example 65, (4aR,6S,8aS)-8a-(2-fluoro-5-((6-methoxypyrazin-2-yl)oxy)phenyl)-2-imino-3,6-dimethylhexahydro-1H-pyrano[3,4-d]pyrimidin-4(4aH)-one] |
| 11.8 nM | 30.3 nM | C[C@H]1C[C@H]2C(=O)N(C)C(=N)N[C@@]2(c2cc(Oc3cnccn3)ccc2F)CO1 [Example 66, (4aR,6S,8aS)-8a-(2-fluoro-5-(pyrazin-2-yloxy)phenyl)-2-imino-3,6-dimethylhexahydro-1H-pyrano[3,4-d]pyrimidin-4(4aH)-one] |
| 13.3 nM | 25.2 nM | Cc1cncc(Oc2ccc(F)c([C@]34CO[C@@H](C)C[C@H]3C(=O)N(C)C(=N)N4)c2)n1 [Example 67, (4aR,6S,8aS)-8a-(2-fluoro-5-((6-methylpyrazin-2-yl)oxy)phenyl)-2-imino-3,6-dimethylhexahydro-1H-pyrano[3,4-d]pyrimidin-4(4aH)-one] |

The remaining lines, values behind:

| Compound | Ki [1] | Ki [2] |
| --- | --- | --- |
| CC(C)COc1ccc(F)c([C@]23CO[C@@H](C4CC4)C[C@H]2C(=O)N(C)C(=N)N3)c1 [Example 45, (4aR,6R,8aS)-6-cyclopropyl-8a-(2-fluoro-5-isobutoxyphenyl)-2-imino-3-methylhexahydro-1H-pyrano[3,4-d]pyrimidin-4(4aH)-one] | 45 nM | 25 nM |
| CN1C(=N)N[C@@]2(c3cc(OCC(F)F)ccc3F)CO[C@@H](C3CC3)C[C@H]2C1=O [Example 46, (4aR,6R,8aS)-6-cyclopropyl-8a-(5-(2,2-difluoroethoxy)-2-fluorophenyl)-2-imino-3-methylhexahydro-1H-pyrano[3,4-d]pyrimidin-4(4aH)-one] | 40 nM | 41 nM |
| COC[C@@H]1C[C@H]2C(=O)N(C)C(=N)N[C@@]2(c2ccc(F)cc2F)CO1 [Example 47, (4aR,6S,8aS)-8a-(2,4-difluorophenyl)-2-imino-6-(methoxymethyl)-3-methylhexahydro-1H-pyrano[3,4-d]pyrimidin-4(4aH)-one] | 5720 nM | 9300 nM |
| COC(=O)[C@@H]1C[C@H]2C(=O)N(C)C(=N)N[C@@]2(c2ccc(F)cc2F)CO1 [Example 48, methyl (4aR,6S,8aS)-8a-(2,4-difluorophenyl)-2-imino-3-methyl-4-oxooctahydro-1H-pyrano[3,4-d]pyrimidine-6-carboxylate] | 1110 nM | 1380 nM |
| CCCOc1ccc(F)c([C@]23CO[C@@H](C4CC4)C[C@H]2C(=O)N(C)C(=N)N3)c1 [Example 49, (4aR,6R,8aS)-6-cyclopropyl-8a-(2-fluoro-5-propoxyphenyl)-2-imino-3-methylhexahydro-1H-pyrano[3,4-d]pyrimidin-4(4aH)-one] | 66 nM | 64 nM |
| COCCOc1ccc(F)c([C@]23CO[C@@H](C4CC4)C[C@H]2C(=O)N(C)C(=N)N3)c1 [Example 50, (4aR,6R,8aS)-6-cyclopropyl-8a-(2-fluoro-5-(2-methoxyethoxy)phenyl)-2-imino-3-methylhexahydro-1H-pyrano[3,4-d]pyrimidin-4(4aH)-one] | 92 nM | 68 nM |
| CN1C(=N)N[C@@]2(c3cc(OCC4CC(F)(F)C4)ccc3F)CO[C@@H](C3CC3)C[C@H]2C1=O [Example 51, (4aR,6R,8aS)-6-cyclopropyl-8a-(5-((3,3-difluorocyclobutyl)methoxy)-2-fluorophenyl)-2-imino-3-methylhexahydro-1H-pyrano[3,4-d]pyrimidin-4(4aH)-one] | 55 nM | 42 nM |
| CN1C(=N)N[C@@]2(c3cc(OCC4CC4(F)F)ccc3F)CO[C@@H](C3CC3)C[C@H]2C1=O (stereo partly shown) [Example 52] | 31 nM | 18 nM |
| COC1CC(COc2ccc(F)c([C@]34CO[C@@H](C5CC5)C[C@H]3C(=O)N(C)C(=N)N4)c2)C1 (stereo partly drawn) [Example 53, (4aR,6R,8aS)-6-cyclopropyl-8a-(2-fluoro-5-((3-methoxycyclobutyl)methoxy)phenyl)-2-imino-3-methylhexahydro-1H-pyrano[3,4-d]pyrimidin-4(4aH)-one] | 180 nM | 117 nM |
| CN1C(=N)N[C@@]2(c3cc(OCC45CC(C4)C5)ccc3F)CO[C@@H](C3CC3)C[C@H]2C1=O [Example 54, (4aR,6R,8aS)-8a-(5-(bicyclo[1.1.1]pentan-1-ylmethoxy)-2-fluorophenyl)-6-cyclopropyl-2-imino-3-methylhexahydro-1H-pyrano[3,4-d]pyrimidin-4(4aH)-one] | 21 nM | 4 nM |
| CN1C(=N)N[C@@]2(c3cc(OCC(F)(F)F)ccc3F)CO[C@@H](C3CC3)C[C@H]2C1=O [Example 55, (4aR,6R,8aS)-6-cyclopropyl-8a-(2-fluoro-5-(2,2,2-trifluoroethoxy)phenyl)-2-imino-3-methylhexahydro-1H-pyrano[3,4-d]pyrimidin-4(4aH)-one] | 636 nM | 4610 nM |
| CN1C(=N)N[C@@]2(c3cc(OC4CC(F)(F)C4)ccc3F)CO[C@@H](C3CC3)C[C@H]2C1=O [Example 57, (4aR,6R,8aS)-6-cyclopropyl-8a-(5-(3,3-difluorocyclobutoxy)-2-fluorophenyl)-2-imino-3-methylhexahydro-1H-pyrano[3,4-d]pyrimidin-4(4aH)-one] | 43 nM | 41 nM |
